Test results reported in patent US12649750B2, “Macrocyclic compounds, compositions, and methods of using thereof” (Sionna Therapeutics Inc., priority 2022, dated 2026).

Experiments:
[1] = biological target: T1, NBD1 (Homo sapiens, UniProt P13569); experiment: Aggregation analysis using differential static light scattering (DSLS), thermal stability of NBD1 (ΔTagg); type: binding; settings: ΔTagg versus DMSO control, NBD1 0.2 mg/ml
T1 construct: Purified recombinant NBD1 was produced using previously described methods; made in house
T1 sequence (P13569 423-646 limits assumed): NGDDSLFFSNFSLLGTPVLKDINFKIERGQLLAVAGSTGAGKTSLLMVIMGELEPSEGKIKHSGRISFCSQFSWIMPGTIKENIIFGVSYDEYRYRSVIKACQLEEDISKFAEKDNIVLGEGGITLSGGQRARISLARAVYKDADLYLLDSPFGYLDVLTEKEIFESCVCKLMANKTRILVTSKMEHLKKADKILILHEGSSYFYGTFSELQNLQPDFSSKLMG
Procedure, shortened: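 Purified recombinant NBD1 at 0.2 mg/ml in 50 mM Tris-HCl, 150 mM NaCl, 5 mM MgCl2, 2 mM ATP, 2 mM DTT, pH 7.6, 1% glycerol, with compound, heated 1° C./min to 70° C. under light-scattering monitoring. Tagg taken at curve inflection; ΔTagg is compound Tagg minus mean DMSO-control Tagg, binned A (≤5° C.), B (>5-≤10° C.), C (>10-≤25° C.).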

[2] = biological target: T2, CFTR (Homo sapiens, UniProt P13569, DEL508-508); experiment: TECC24 AUC fold over DMSO @10 μM, CFTR-mediated transepithelial chloride transport in CF-HBE cells; type: cell-based; settings: test agent AUC divided by DMSO vehicle AUC, primary CF-HBE cells, ΔF508 homozygous donor, 48 hours incubation
T2 construct: Primary human bronchial epithelial cells from a ΔF508 homozygous CF donor; host or cells: primary human bronchial epithelial cells (CF-HBE), ΔF508 homozygous donor
T2 sequence (P13569 with tags, fused parts or gaps DEL508-508): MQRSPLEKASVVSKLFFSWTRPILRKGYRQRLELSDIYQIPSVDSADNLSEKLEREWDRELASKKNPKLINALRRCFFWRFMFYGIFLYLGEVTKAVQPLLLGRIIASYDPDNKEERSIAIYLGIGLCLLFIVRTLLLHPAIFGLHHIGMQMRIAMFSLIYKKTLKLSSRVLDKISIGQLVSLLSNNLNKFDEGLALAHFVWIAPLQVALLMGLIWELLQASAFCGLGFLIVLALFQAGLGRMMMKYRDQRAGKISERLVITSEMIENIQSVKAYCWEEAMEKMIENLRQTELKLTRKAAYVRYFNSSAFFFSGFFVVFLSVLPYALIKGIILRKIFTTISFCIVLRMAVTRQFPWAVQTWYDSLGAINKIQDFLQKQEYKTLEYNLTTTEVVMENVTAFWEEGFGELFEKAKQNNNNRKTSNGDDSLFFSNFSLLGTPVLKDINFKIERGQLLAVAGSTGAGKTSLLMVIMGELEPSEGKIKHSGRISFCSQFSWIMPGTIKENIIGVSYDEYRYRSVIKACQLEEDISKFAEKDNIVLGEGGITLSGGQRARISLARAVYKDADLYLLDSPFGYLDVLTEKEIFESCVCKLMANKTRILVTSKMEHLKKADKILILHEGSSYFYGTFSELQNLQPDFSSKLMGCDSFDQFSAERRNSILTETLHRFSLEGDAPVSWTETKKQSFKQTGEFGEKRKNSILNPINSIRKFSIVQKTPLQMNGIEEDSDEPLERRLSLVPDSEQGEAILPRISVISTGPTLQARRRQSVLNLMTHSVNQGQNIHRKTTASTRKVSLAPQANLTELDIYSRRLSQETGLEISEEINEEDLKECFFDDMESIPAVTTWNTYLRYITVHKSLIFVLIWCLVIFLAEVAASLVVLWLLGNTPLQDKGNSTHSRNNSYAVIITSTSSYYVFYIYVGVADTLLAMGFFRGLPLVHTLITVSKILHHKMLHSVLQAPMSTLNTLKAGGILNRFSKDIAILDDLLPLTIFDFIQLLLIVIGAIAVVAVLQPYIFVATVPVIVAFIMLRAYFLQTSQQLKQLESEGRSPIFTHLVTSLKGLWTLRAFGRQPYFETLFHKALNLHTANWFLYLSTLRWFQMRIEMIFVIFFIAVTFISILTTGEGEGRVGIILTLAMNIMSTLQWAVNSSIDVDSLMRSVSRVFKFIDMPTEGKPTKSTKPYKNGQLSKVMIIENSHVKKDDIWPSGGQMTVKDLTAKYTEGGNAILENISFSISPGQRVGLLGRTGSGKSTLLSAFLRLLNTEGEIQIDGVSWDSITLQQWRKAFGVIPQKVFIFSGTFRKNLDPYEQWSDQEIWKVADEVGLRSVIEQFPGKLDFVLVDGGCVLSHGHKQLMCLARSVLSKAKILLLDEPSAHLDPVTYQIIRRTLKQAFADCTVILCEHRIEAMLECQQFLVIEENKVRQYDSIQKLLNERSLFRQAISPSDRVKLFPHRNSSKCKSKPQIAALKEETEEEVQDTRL
Procedure, shortened: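 Primary ΔF508-homozygous CF bronchial epithelial cells on inserts were incubated 48 h at 36.5 °C with compound in IL-13-containing medium. VT and TEER were then recorded in current-clamp mode (pH 7.4 HEPES bath) with benzamil 10 μM, forskolin 10 μM, then CFTR inhibitor-172 20 μM. The IEQ AUC between forskolin and inhibitor was divided by vehicle AUC.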

| SMILES | DSLS 3D (100 μM ΔT) [1] | TECC (AUC, 10 μM) [2] |
| --- | --- | --- |
| Cn1nc2nc1-c1cc(ccc1F)Oc1c(F)cc3[nH]cnc3c1CCS(=O)(=O)CC(C)(C)CCCC2(C)c1cccc(CCC(=O)O)c1 (stereo not shown) [Compound 116, 3-[3-(22,28-Difluoro-3,6,10,10-tetramethyl-12,12-dioxo-24-oxa-12λ6-thia-3,4,17,19,30-pentazapentacyclo[23.3.1.12,5.015,23.016,20]triaconta-1(29),2(30),4,15,17,20,22,25,27-nonaen-6-yl)phenyl]propanoic Acid] | C (a value greater than 10 °C and less than or equal to 25 °C is marked “C”) | A (a TECC value less than 12 is marked “A”) |
| CC(Cc1cccc(C2(C)CCCC(C)(C)CS(=O)(=O)CCc3c(c(F)cc4[nH]ccc34)Oc3cccc(c3)-c3nc2cn3C)c1)C(=O)O (stereo not shown) [Compound 117, 3-[3-(22-Fluoro-3,6,10,10-tetramethyl-12,12-dioxo-24-oxa-12λ6-thia-3,19,30-triazapentacyclo[23.3.1.12,5.015,23.016,20]triaconta-1(29),2(30),4,15,17,20,22,25,27-nonaen-6-yl)phenyl]-2-methyl-propanoic Acid] | C (a value greater than 10 °C and less than or equal to 25 °C is marked “C”) | C (a value between 20 and 80 is marked “C”) |
| Cn1nc2nc1-c1cc(ccc1F)Oc1c(F)cc3[nH]ccc3c1CCS(=O)(=O)CC(C)(C)CCCC2(C)c1ccc2c(c1)CC(C(=O)O)C2 (stereo not shown) [Compound 128, 5-(22,28-Difluoro-3,6,10,10-tetramethyl-12,12-dioxo-24-oxa-12λ6-thia-3,4,19,30-tetrazapentacyclo[23.3.1.12,5.015,23.016,20]triaconta-1(29),2(30),4,15,17,20,22,25,27-nonaen-6-yl)indane-2-carboxylic Acid] | C (a value greater than 10 °C and less than or equal to 25 °C is marked “C”) | A (a TECC value less than 12 is marked “A”) |
| CCOC(=O)C(Cc1cccc(C2(C)CCCC(C)(C)CS(=O)(=O)CCc3c(c(F)cc4[nH]ccc34)Oc3ccc(F)c(c3)-c3nc2nn3C)c1)C(F)F (stereo not shown) [Compound 131, Ethyl 2-[[3-(22,28-difluoro-3,6,10,10-tetramethyl-12,12-dioxo-24-oxa-12λ6-thia-3,4,19,30-tetrazapentacyclo[23.3.1.12,5.015,23.016,20]triaconta-1(29),2(30),4,15,17,20,22,25,27-nonaen-6-yl)phenyl]methyl]-3,3-difluoro-propanoate] | A (an ΔTagg value less than or equal to 5 °C is marked “A”) | B (a value between 12-20 is marked “B”) |
| CC(Cc1cccc(C2(N)CCCC(C)(C)CS(=O)(=O)CCc3c(c(F)cc4[nH]ccc34)Oc3ccc(F)c(c3)-c3nc2nn3C)c1)C(=O)O (stereo not shown) [Compound 138, 3-[3-(6-Amino-22,28-difluoro-3,10,10-trimethyl-12,12-dioxo-24-oxa-12λ6-thia-3,4,19,30-tetrazapentacyclo[23.3.1.12,5.015,23.016,20]triaconta-1(29),2(30),4,15,17,20,22,25,27-nonaen-6-yl)phenyl]-2-methyl-propanoic Acid] | C (a value greater than 10 °C and less than or equal to 25 °C is marked “C”) | C (a value between 20 and 80 is marked “C”) |
| Cn1nc2nc1-c1cc(ccc1F)Oc1c(F)cc3[nH]ccc3c1CCS(=O)(=O)CC(C)(C)CCCC2(C)c1cccc(O)c1 (stereo not shown) [Compound 154, 3-(22,28-Difluoro-3,6,10,10-tetramethyl-12,12-dioxo-24-oxa-12λ6-thia-3,4,19,30-tetrazapentacyclo[23.3.1.12,5.015,23.016,20]triaconta-1(29),2(30),4,15,17,20,22,25,27-nonaen-6-yl)phenol] | B (a value above 5 °C and less than or equal to 10 °C is marked “B”) | A (a TECC value less than 12 is marked “A”) |
| C/C(C(=O)O)=C(/C)c1cccc(C2(C)CCCC(C)(C)CS(=O)(=O)CCc3c(c(F)cc4[nH]ccc34)Oc3ccc(F)c(c3)-c3nc2nn3C)c1 (stereo not shown) [Compound 155, (E)-3-[3-(22,28-Difluoro-3,6,10,10-tetramethyl-12,12-dioxo-24-oxa-12λ6-thia-3,4,19,30-tetrazapentacyclo[23.3.1.12,5.015,23.016,20]triaconta-1(29),2(30),4,15,17,20,22,25,27-nonaen-6-yl)phenyl]-2-methyl-but-2-enoic Acid] | C (a value greater than 10 °C and less than or equal to 25 °C is marked “C”) | A (a TECC value less than 12 is marked “A”) |
| CC(C(=O)O)C(C)c1cccc(C2(C)CCCC(C)(C)CS(=O)(=O)CCc3c(c(F)cc4[nH]ccc34)Oc3ccc(F)c(c3)-c3nc2nn3C)c1 (stereo not shown) [Compound 156, 3-[3-(22,28-Difluoro-3,6,10,10-tetramethyl-12,12-dioxo-24-oxa-12λ6-thia-3,4,19,30-tetrazapentacyclo[23.3.1.12,5.015,23.016,20]triaconta-1(29),2(30),4,15,17,20,22,25,27-nonaen-6-yl)phenyl]-2-methyl-butanoic Acid] | C (a value greater than 10 °C and less than or equal to 25 °C is marked “C”) | B (a value between 12-20 is marked “B”) |
| COC(=O)C(C)CCc1cccc(C2(C)CCCC(C)(C)CS(=O)(=O)CCc3c(c(F)cc4[nH]ccc34)Oc3ccc(F)c(c3)-c3nc2nn3C)c1 (stereo not shown) [Compound 159, Methyl 4-[3-(22,28-difluoro-3,6,10,10-tetramethyl-12,12-dioxo-24-oxa-12λ6-thia-3,4,19,30-tetrazapentacyclo[23.3.1.12,5.015,23.016,20]triaconta-1(29),2(30),4,15,17,20,22,25,27-nonaen-6-yl)phenyl]-2-methyl-butanoate] | A (an ΔTagg value less than or equal to 5 °C is marked “A”) | B (a value between 12-20 is marked “B”) |
| CC(CCc1cccc(C2(C)CCCC(C)(C)CS(=O)(=O)CCc3c(c(F)cc4[nH]ccc34)Oc3ccc(F)c(c3)-c3nc2nn3C)c1)C(=O)O (stereo not shown) [Compound 160, 4-[3-(22,28-Difluoro-3,6,10,10-tetramethyl-12,12-dioxo-24-oxa-12λ6-thia-3,4,19,30-tetrazapentacyclo[23.3.1.12,5.015,23.016,20]triaconta-1(29),2(30),4,15,17,20,22,25,27-nonaen-6-yl)phenyl]-2-methyl-butanoic Acid] | C (a value greater than 10 °C and less than or equal to 25 °C is marked “C”) | A (a TECC value less than 12 is marked “A”) |
| C[C@@H](Cc1cccc(C2CCCC(C)(C)CS(=O)(=O)CCc3c(c(F)cc4[nH]ccc34)C(=O)c3cccc(c3)-c3ccn2n3)c1)C(=O)O (stereo partly drawn) [Compound 163, (2S)-3-[3-(22-Fluoro-10,10-dimethyl-12,12,24-trioxo-12λ6-thia-5,19,30-triazapentacyclo[23.3.1.12,5.015,23.016,20]triaconta-1(29),2(30),3,15,17,20,22,25,27-nonaen-6-yl)phenyl]-2-methyl-propanoic Acid] | A (an ΔTagg value less than or equal to 5 °C is marked “A”) | A (a TECC value less than 12 is marked “A”) |
| C[C@H](Cc1cccc(C2CCCC(C)(C)CS(=O)(=O)CCc3c(c(F)cc4[nH]ccc34)C(=O)c3cccc(c3)-c3ccn2n3)c1)C(=O)O (stereo partly drawn) [Compound 164, (2R)-3-[3-(22-Fluoro-10,10-dimethyl-12,12,24-trioxo-12λ6-thia-5,19,30-triazapentacyclo[23.3.1.12,5.015,23.016,20]triaconta-1(29),2(30),3,15,17,20,22,25,27-nonaen-6-yl)phenyl]-2-methyl-propanoic acid] | A (an ΔTagg value less than or equal to 5 °C is marked “A”) | A (a TECC value less than 12 is marked “A”) |
| Cn1nc2nc1-c1cc(ccc1F)Oc1c(F)cc3[nH]ccc3c1CCS(=O)(=O)CC(C)(C)CCCC2(C)c1cccc(CC(C(=O)O)C(F)(F)F)c1 (stereo not shown) [Compound 168, 2-[[3-(22,28-Difluoro-3,6,10,10-tetramethyl-12,12-dioxo-24-oxa-12λ6-thia-3,4,19,30-tetrazapentacyclo[23.3.1.12,5.015,23.016,20]triaconta-1(29),2(30),4,15,17,20,22,25,27-nonaen-6-yl)phenyl]methyl]-3,3,3-trifluoro-propanoic acid] | C (a value greater than 10 °C and less than or equal to 25 °C is marked “C”) | B (a value between 12-20 is marked “B”) |
| Cc1cn2nc1-c1cccc(c1)C(=O)c1c(F)cc3[nH]ccc3c1CCS(=O)(=O)CC(C)(C)CCCC2c1cccc(C[C@H](C)C(=O)O)c1 (stereo partly drawn) [Compound 170, (2S)-3-[3-(22-Fluoro-3,10,10-trimethyl-12,12,24-trioxo-12λ6-thia-5,19,30-triazapentacyclo[23.3.1.12,5.015,23.016,20]triaconta-1(29),2(30),3,15,17,20,22,25,27-nonaen-6-yl)phenyl]-2-methyl-propanoic Acid] | A (an ΔTagg value less than or equal to 5 °C is marked “A”) | A (a TECC value less than 12 is marked “A”) |
